{
  "source": "paper PMC3663124",
  "about": "“S-Adenosyl-S-carboxymethyl-L-homocysteine: a novel cofactor found in the putative tRNA-modifying enzyme CmoA” (Acta Crystallographica Section D: Biological Crystallography, 2013)",
  "biological_target": "T1, CmoA (Escherichia coli, UniProt P76290)",
  "T1 construct": "R100H versus P76290 (PCR mutation or strain difference); expressed in E. coli Rosetta pLysS (DE3); dimer; residues 19-247 (chain A) and 20-244 (chain B) modelled",
  "T1 sequence (P76290 whole entry R100H, the tested form may be a part)": "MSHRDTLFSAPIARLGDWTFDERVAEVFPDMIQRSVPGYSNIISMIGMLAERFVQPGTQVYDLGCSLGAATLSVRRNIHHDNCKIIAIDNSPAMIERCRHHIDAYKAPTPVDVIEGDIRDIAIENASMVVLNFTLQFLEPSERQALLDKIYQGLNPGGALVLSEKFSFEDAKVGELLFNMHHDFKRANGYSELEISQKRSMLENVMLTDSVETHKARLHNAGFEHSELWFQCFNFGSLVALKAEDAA",
  "assay": "X-ray crystal structure ([…] A); FT-MS of released ligand",
  "type": "binding",
  "conditions": "copurified from E. coli expression host; carboxymethyl carboxylate salt bridge to Arg199; putative active site",
  "data": [
    {"smiles": "Nc1ncnc2c1ncn2[C@@H]1O[C@H](C[S+](CC[C@H](N)C(=O)O)CC(=O)O)[C@@H](O)[C@H]1O", "note": "(stereo partly drawn) [[(3S)-3-amino-3-carboxypropyl]{[(2S,3S,4R,5R)-5-(6-aminopurin-9-yl)-3,4-dihydroxyoxolan-2-yl]methyl}(carboxymethyl)sulfanium]", "values": [
      {"measurement": "X-ray crystal structure (1.73 A); FT-MS of released ligand", "result": "both molecules of CmoA contain the novel derivative S-adenosyl-S-carboxymethyl-L-homocysteine (SCM-SAH)"}
    ]}
  ]
}
